Consider one compound from PMC8830500, “Small Molecule Palmatine Targeting Musashi-2 in Colorectal Cancer” (Frontiers in Pharmacology, 2022).

What all share (type): binding
One assay addresses T1, LIN28A (Homo sapiens, UniProt Q9H9Z2).
T1 construct: GFP-tagged, HEK293FT lysate
T1 sequence (Q9H9Z2 2-209): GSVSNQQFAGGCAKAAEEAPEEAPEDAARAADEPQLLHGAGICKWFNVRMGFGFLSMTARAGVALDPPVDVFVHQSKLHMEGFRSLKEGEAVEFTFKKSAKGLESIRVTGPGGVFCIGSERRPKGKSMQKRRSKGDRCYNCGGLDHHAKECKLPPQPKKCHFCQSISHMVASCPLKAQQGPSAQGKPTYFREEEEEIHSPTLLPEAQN
Nature of the assay: MST with GFP-tagged protein in cell lysate.

A further assay deals with T2, HUR (Homo sapiens, UniProt Q15717).
T2 construct: gene ELAVL1; GFP-tagged, HEK293FT lysate
The assay is described as follows: MST with GFP-tagged protein in cell lysate.

The target in another assay is Musashi-2 (MSI2) (Homo sapiens, UniProt Q96DH6). The assay is described as follows: MST with GFP-tagged protein in HEK293FT lysate; CETSA in HCT116 cells.

Each structure is given as a SMILES string. pKd: −log10 of the molar value.

Chain of Musashi-2 (MSI2) (Q96DH6 whole entry): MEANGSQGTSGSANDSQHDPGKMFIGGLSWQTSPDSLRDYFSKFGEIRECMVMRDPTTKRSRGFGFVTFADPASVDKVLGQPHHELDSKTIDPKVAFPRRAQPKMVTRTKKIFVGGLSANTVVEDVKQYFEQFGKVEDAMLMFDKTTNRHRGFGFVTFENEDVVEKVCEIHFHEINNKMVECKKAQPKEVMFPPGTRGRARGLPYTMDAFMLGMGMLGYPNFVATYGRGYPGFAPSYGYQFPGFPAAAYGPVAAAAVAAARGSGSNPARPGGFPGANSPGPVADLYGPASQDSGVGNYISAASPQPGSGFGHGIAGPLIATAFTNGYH
T2 sequence (Q15717 2-326): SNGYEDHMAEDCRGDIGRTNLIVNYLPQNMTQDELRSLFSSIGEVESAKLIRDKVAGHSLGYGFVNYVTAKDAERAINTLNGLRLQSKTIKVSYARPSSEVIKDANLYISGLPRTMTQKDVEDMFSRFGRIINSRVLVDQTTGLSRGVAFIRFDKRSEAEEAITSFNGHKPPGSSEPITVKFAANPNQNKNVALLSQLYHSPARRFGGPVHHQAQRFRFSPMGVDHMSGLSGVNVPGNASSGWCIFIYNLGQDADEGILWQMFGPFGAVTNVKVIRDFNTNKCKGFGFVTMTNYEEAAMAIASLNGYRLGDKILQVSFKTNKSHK

In general, pKd refers to the Kd on a negative log10 scale, so that one unit is a factor of ten. Regarding `COc1cc2c(cc1OC)-c1cc3ccc(OC)c(OC)c3c[n+]1CC2` [palmatine], the pKd at LIN28A is 4.30; on HUR, 4.47; at Musashi-2 (MSI2), 4.77.
